From publication PMC11514582, “Leveraging the Aggregated Protein Dye YAT2150 for Malaria Chemotherapy” (Pharmaceutics, 2024)

Key:
Caco-2 cells = test: Influx and efflux assays in Caco-2 cells with transporter/endocytosis inhibitors; assay type: cell-based, human; conditions: 5 µM, FBS-free medium
Excerpt: The panel of influx and efflux membrane transporters expressed in Caco-2 cells has been previously characterized and, to a great extent, mimics the one described in human intestine. Based upon this information and the established knowledge of the physiology of intestinal transporters, we considered the following as possible YAT2150 influx transporters: Organic Cation Transporters (OCTs), Peptide Transporter 1 (PEPT1), and Organic Anion Transporter Polypeptide 2B1 (OATP2B1). […]
Caco-2 cells were grown in monolayer on a solid support at 37 °C in a humidified atmosphere with 5% CO2 and maintained in DMEM supplemented with 10% FBS, 2 mM L-glutamine, 1% MEM non-essential amino acids, 20 U/mL penicillin, and 20 µg/mL streptomycin (Life Technologies, Carlsbad, CA, USA). To identify YAT2150 influx and efflux mechanisms in Caco-2 cells, YAT2150 intracellular accumulation was determined by measuring its fluorescent emission at 610 nm under various experimental conditions as follows. A total of 50,000 cells/well were seeded in MW24 plates, and 24 h after seeding, YAT2150 influx and efflux were determined either in the presence or absence of FBS. […] Then, cells were washed with PBS, and intracellular YAT2150 was determined (see below). […] In parallel, emitted fluorescence was measured in an iBright Imaging System and quantified by iBright Analysis Software 5.3.0 (Thermo Fisher Scientific, Inc.). […]

[1] = cited from earlier work

CCN(CC)c1ccc(/C=C/c2cc[n+](CCCCCCCCCC[n+]3ccc(/C=C/c4ccc(N(CC)CC)cc4)c(C)c3)cc2C)cc1 [YAT2150]
efflux route in Caco-2 cells (Caco-2 cells; with efflux inhibitors): OSTα/β transporters mediated YAT2150 efflux | influx route in Caco-2 cells (Caco-2 cells; with influx inhibitors): mainly internalized by endocytosis and also through the OATP2B1 transporter | Microsomal stability (% remaining after 1 h) ([1]; human microsomes, 37 °C): 54.6 ^7% | Microsomal stability T1/2 ([1]; human, microsomes): 80.5 ^7 min
